Like-named read-outs stand apart in the source and are kept apart here.
How the values were obtained:
Assay in all cases: SelectScreen Z-LYTE kinase activity assay (SI Table 6)
Assay type in all cases: biochemical
[1] = molecular target: T1, protein kinases of the Z-LYTE panel (Homo sapiens, UniProt Q9NWZ3)
T1 sequence (Q9NWZ3 1-460): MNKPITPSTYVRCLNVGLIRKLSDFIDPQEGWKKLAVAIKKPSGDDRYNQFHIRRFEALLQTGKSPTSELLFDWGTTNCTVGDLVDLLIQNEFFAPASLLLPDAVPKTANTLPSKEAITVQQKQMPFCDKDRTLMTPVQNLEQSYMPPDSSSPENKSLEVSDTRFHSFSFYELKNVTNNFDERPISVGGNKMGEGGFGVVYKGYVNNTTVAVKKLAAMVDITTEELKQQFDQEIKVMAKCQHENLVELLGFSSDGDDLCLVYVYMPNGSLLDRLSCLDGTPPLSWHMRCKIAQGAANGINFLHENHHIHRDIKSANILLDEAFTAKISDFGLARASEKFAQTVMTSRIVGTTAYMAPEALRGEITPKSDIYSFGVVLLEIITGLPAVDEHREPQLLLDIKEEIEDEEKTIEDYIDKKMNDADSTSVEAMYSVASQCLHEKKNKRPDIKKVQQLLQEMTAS
Summary of the method: (§1)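 A single compound concentration of 1 μM was profiled in the vendor's Adapta, Lantha and Z-LYTE kinase assays. In gel-based follow-ups with 200 μM compound, phosphorylation was resolved on Phos-tag SDS-PAGE and quantified by Coomassie. The ATM run used 1 mM ATP with GST-p53 for 30 min, and the mTORC1 run used 250 μM ATP with 4E-BP1 for 3 h.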

[2] = molecular target: T2, protein kinases of the Z-LYTE panel (Homo sapiens, UniProt Q13976)
T2 sequence (Q13976 1-671): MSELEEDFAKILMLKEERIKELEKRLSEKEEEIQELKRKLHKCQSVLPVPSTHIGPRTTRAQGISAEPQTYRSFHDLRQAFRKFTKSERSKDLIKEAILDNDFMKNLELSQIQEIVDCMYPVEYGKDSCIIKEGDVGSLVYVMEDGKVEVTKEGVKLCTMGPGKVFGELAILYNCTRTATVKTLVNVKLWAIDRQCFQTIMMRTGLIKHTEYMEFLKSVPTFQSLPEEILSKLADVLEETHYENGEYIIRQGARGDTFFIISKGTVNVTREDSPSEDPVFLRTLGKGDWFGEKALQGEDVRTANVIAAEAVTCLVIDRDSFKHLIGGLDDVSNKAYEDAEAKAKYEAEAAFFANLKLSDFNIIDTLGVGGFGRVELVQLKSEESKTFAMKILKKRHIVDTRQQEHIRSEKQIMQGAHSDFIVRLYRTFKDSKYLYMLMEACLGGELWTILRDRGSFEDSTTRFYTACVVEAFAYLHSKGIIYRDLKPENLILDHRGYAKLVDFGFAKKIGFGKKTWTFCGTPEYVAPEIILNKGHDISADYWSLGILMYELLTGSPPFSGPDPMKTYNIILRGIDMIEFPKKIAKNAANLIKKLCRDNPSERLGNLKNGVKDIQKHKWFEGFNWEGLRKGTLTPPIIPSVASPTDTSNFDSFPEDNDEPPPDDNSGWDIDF
Summary of the method: as §1

[3] = molecular target: T3, protein kinases of the Z-LYTE panel (Homo sapiens, UniProt Q13043)
T3 sequence (Q13043 1-487): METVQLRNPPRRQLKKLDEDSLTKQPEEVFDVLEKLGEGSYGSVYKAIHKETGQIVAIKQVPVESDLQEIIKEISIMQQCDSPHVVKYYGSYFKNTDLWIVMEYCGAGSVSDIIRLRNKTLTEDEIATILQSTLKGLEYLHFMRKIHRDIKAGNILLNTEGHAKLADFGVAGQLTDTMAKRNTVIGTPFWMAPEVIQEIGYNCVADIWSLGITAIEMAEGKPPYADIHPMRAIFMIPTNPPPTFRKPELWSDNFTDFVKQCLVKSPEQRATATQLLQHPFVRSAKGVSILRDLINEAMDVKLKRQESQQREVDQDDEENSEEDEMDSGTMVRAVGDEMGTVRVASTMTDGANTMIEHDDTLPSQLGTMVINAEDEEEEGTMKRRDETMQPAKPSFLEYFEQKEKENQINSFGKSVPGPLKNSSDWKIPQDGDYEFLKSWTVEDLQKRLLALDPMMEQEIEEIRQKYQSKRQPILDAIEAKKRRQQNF
Summary of the method: as §1

[4] = molecular target: protein kinases of the Z-LYTE panel (Homo sapiens, UniProt P06493)
Summary of the method: as §1

[5] = molecular target: protein kinases of the Z-LYTE panel (Homo sapiens, UniProt P42684)
Summary of the method: as §1

protein kinases of the Z-LYTE panel (Homo sapiens, UniProt P42684), sequence (P42684 whole entry): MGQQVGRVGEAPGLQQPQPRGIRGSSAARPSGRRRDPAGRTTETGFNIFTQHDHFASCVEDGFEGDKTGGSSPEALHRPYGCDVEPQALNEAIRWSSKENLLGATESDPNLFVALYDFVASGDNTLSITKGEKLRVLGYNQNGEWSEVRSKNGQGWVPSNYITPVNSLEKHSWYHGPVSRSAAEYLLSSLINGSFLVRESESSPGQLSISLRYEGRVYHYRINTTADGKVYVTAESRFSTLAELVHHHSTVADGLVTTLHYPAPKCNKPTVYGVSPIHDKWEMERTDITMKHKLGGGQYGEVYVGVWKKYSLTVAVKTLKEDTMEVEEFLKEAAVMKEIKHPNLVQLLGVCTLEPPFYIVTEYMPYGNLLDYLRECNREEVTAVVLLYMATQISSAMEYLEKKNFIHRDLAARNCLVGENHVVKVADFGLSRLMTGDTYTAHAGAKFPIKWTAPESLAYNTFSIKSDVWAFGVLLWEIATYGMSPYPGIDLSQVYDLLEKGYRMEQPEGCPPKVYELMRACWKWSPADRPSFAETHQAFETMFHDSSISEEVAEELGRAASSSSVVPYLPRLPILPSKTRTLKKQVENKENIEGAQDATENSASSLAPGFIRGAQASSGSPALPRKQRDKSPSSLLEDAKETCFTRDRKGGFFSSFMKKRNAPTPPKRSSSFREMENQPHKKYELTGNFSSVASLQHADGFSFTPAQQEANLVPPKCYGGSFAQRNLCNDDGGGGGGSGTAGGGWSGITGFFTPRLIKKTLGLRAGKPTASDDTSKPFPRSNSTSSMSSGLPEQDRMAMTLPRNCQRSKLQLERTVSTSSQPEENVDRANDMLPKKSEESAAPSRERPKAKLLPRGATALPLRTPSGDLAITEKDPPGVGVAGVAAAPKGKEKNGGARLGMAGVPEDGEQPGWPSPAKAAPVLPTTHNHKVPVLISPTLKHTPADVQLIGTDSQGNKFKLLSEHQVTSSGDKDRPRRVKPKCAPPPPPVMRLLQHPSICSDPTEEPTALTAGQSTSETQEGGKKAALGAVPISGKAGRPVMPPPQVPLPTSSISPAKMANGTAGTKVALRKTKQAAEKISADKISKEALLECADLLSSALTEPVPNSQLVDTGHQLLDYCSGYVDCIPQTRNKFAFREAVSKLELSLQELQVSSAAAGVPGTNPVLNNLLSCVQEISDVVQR
protein kinases of the Z-LYTE panel (Homo sapiens, UniProt P06493), sequence (P06493 whole entry): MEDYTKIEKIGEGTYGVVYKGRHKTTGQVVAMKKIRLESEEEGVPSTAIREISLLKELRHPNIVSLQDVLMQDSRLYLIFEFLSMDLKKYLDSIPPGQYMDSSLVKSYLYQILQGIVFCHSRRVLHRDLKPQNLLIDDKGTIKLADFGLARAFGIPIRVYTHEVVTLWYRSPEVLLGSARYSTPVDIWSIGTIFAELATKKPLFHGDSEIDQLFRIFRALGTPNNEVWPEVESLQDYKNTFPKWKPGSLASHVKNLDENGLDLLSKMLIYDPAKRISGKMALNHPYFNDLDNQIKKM

CCN1CCN(c2ccc(Nc3cc(Nc4cccc5c4N(C(C)=O)CC5)ccn3)cc2)CC1 [Compound 1938]
inhibition at 1 µM ([1]; read-out: % Inhibition Point 1): -0.0182% | inhibition at 1 µM ([1]; read-out: % Inhibition Point 2): -2.21% | inhibition at 1 µM ([1]; read-out: % Inhibition mean): -1.11% | inhibition at 1 µM ([2]; read-out: % Inhibition Point 1): 4.68% | inhibition at 1 µM ([2]; read-out: % Inhibition Point 2): -0.193% | inhibition at 1 µM ([2]; read-out: % Inhibition mean): 2.24% | inhibition at 1 µM ([3]; read-out: % Inhibition Point 1): 4% | inhibition at 1 µM ([3]; read-out: % Inhibition Point 2): 1.07% | inhibition at 1 µM ([3]; read-out: % Inhibition mean): 2.46% | inhibition at 1 µM ([4]; read-out: % Inhibition Point 1): 5.46% | inhibition at 1 µM ([4]; read-out: % Inhibition Point 2): 3.74% | inhibition at 1 µM ([4]; read-out: % Inhibition mean): 4.6% | inhibition at 1 µM ([5]; read-out: % Inhibition Point 1): 22% | inhibition at 1 µM ([5]; read-out: % Inhibition Point 2): 20% | inhibition at 1 µM ([5]; read-out: % Inhibition mean): 21%

Reference: paper PMC7614683, “A small molecule PI3Kα activator for cardioprotection and neuroregeneration” (Nature, 2023)
